In patent US12708655B2, “Botanicals as WNT/beta-catenin activators, molecular pathway regulators, tissue regenerators and health biomarker regulators” (Arbor Life Holdings, Ltd., priority 2020, dated 2026):
“And” between values parts separate entries of the source, which are not always exact repeats. Equal values may be shown once.

Tests used:
[1] = test system: procaspase-8, caspase-3, procaspase-9, Bax, p53, Bcl-2, Bcl-XL; conditions: mouse model of hair loss; cited from earlier work
[2] = test system: androgentic alopecia and telogen effluvium in Women; assay: Comparative analysis of clinical trial results in women versus standard of care, adjusted to 24 weeks; format: in vivo, human
[3] = test system: androgenetic alopecia and telogen effluvium in Men; assay: Comparative analysis of clinical trial results in men versus standard of care, adjusted to 24 weeks; format: in vivo, human
male pattern baldness = conditions: human, in vivo; cited from earlier work
[4] = test system: human dermal papilla stem cells (HDPSCs); assay: MTT assay of HDPSC growth/proliferation in culture; format: cell-based; conditions: for MTT signal (absorbance at 570 nm), mean relative to Control 1.00: n = 6; for Change vs Control (stem cells, MTT): Table 5e; for Change in Stem Cells (MTT signal, mean relative to Control 1.00): n = 29-30
Experimental: Passage 3 human dermal papilla stem cells (HDPSCs) from a person were purchased from Sigma-Aldrich (Burlington, ON, Canada) and all work was performed under Brock University Research Ethics Board approval (File 15-138). The cells were grown on collagen-coated plates in a 50:50 mixture of Dulbecco's modified Eagles medium (DMEM):Ham's F12 media (Sigma) supplemented with 10% fetal bovine serum (FBS), 1% Gluta-Max™, 0.1% penicillin/streptomycin, 20 ng/mL human fibroblast growth factor, and 10 ng/mL human epidermal growth factor (complete medium). Cell cultures were maintained in incubators set to 5% CO2, 37° C. and 100% humidity. Experiments were performed under conditions of unregulated O2 (18-19%), except where indicated. Cells initially underwent 5-7 passages and were then stored frozen in vials of one million cells each in the above medium supplemented with 10% dimethylsulfoxide (DMSO) and stored in liquid nitrogen. For each experiment, a single vial was thawed, grown overnight, and used to seed 96-well plates.
Botanical extracts and Biotin were screened for their ability to stimulate HDPSC growth in culture using a 96-well plate format with MTT assay as an endpoint. Cells were treated for 72 h with various concentrations and combinations (as indicated, range; 1×10^−1-1×10^−5) of extracts (Table 5a). All the ingredients were able to stimulate growth or cell proliferation above control to varying rates and by varied concentrations.
Cell proliferation was assessed by MTT [3-(4,5-dimethylthiazol-2-yl)-2,5-diphenyltetrazolium bromide] assay according to the manufacturer's recommendations. HDPSCs were seeded onto collagen-coated 96-well plates at~2000 cells/well and grown in complete medium overnight. The next day, indicated concentrations of botanical extracts were added to individual wells.
For all constituents, lyophilized extracts (botanicals) or oil (Biotin) were initially dissolved in PBS at the following concentrations: Biotin 0.25 mg/mL; grapeseesd 7.5 mg/mL; skullcap 1.7 mg/mL; eclipta 3.0 mg/mL. These solutions were sterilized by passing through a 0.45 μm syringe filter. The following dilutions of these solutions, referred to as “Stock Solutions”, were then used for experimental treatments in cell culture media: Biotin (1:100); grapeseed (1:1000); skullcap (1:1000); eclipta (1:100). DMEM media and extracts were refreshed each day. The following day, the MT assay was performed to evaluate cell growth. For this, all media/extract was removed from wells and replaced with phenol-red free DMEM. The cells were incubated for 2 h at 37° C. in a tissue culture incubator. Solubilization solution was then applied to lyse cells and the mixture was triturated repeatedly. The solubilized solutions from each well were then transferred to a fresh 96-well plate and absorbance read at 570 nm. Experiments were tested for 3 different concentration models and one was repeated three times at 5% oxygen and three times at 18% oxygen.
Botanical extracts of grapeseed, skullcap and eclipta and Biotin were screened for their ability to stimulate HDPSC growth in culture using a 96-well plate format with MT assay as an endpoint. Cells were treated for 72 h with various concentrations and combinations with further stock dilutions in the range; 10^−1-10^−5 of the extracts. […] (See Tables 5a, b, c, d, e, f, and g).

[5] = test system: Wnt/beta-Catenin signaling; assay: TopFlash/FopFlash luciferase assay of Wnt/beta-Catenin signaling in transfected HDPSCs; format: cell-based, human
Experimental: The cells were then seeded onto a collagen coated 96-well plate (white opaque with clear bottom, Greiner Bio-one 655098) using 2500 cells per well on average with 200 μL supplemented D-MEM. […] In a 1.5 or 2 mL centrifuge tube, 60 μL FuGene® 6 was added to 500 μL DMEM (with no supplements or antibiotics) medium and mixed gently, then incubated for 5 min. 1) and 2) were combined and mixed gently, then incubated for 20 min at room temperature with occasional gentle mixing by hand. Old medium was removed from all wells and replaced with 100 μL fresh supplemented D-MEM. […] was then added to each well and mixed gently by pipette. Medium was changed after 4-6 h with 100 μL fresh supplemented DMEM. […] The treatments were performed three times once a day for a total of three days of treatment. Medium was removed from each well and wells were washed with 50 μL room temperature PBS so that no colour could be seen leftover. 20 μL lysis solution was added to each well and hand shaken every few minutes for a total of 15 mins. The fluorescence spectrophotometer (Varian Cary Eclipse model) was set to: • Data mode: Bio/Chemi-luminescence • Emission wavelength: 560.00 nm • Stop time: 0.8 mins • PMT Detector Voltage: […] 3 of the duplicates of the wells from 3) were used to count the cells in each well and estimate a count for each type of extract. Stimulation of stem cell growth and proliferation can be achieved by activation of the Wnt/beta-Catenin signaling pathway. Having confirmed proliferation of […] by exposure to grapeseed, skullcap, eclipta and Biotin and combinations thereof, a series of studies were conducted to detect and measure the upregulation of the Wnt/beta-Catenin protein as the activation mechanism of the HDPSC proliferation. The method selected for the Wnt/beta-Catenin protein studies was transfection with Topflash and Fopflash plasmids followed by measuring luciferase activity by bioluminescence assays. Topflash and Fopflash plasmids were obtained as bacterial stab cultures from Add gene. Plasmid DNA was purified using the Norgen Biotek kit (info). […] Old medium was removed and replaced with 100 μL fresh complete medium. 20 μL of DNA/FuGENETM 6 mixture was added and mixed gently by pipette. After 4-6 h, medium was removed and replaced with 100 μL fresh complete medium. Botanical extracts were then added to each well. Treatments lasted 72 h with media/extracts refreshed every 24 h. Activation of Wnt/beta-Catenin signaling was assayed as luciferase activity using standard bioluminescence assays. Media from each well was removed and cells were washed twice with 50 μL PBS. 20 μL of cell lysis solution was then added to each well and the plate was incubated at room temperature for 15 min. Luminescence at 560±10 nm was measured using a Varian Cary Eclipse fluorescence spectrophotometer. […] Following transfection, cells were treated for three days as for the MTT assay and then assayed for luciferase activity using standard assays. […] To evaluate whether the extract combinations with Biotin identified in FIG. 1 activate Wnt/beta-Catenin signaling, […] were transfected with Topflash plasmid, which contains the luciferase cDNA and several tandem repeats of the Wnt/beta-Catenin response element.^230 Following transfection, cells were treated for three days as for the MTT assay and then assayed for luciferase activity using standard assays.

CC(C)(O)[C@@H]1CC[C@](C)([C@H]2[C@@H](O)C[C@@]3(C)[C@@H]4C[C@H](O[C@@H]5O[C@H](CO)[C@@H](O)[C@H](O)[C@H]5O)[C@H]5C(C)(C)[C@@H](O[C@@H]6OC[C@@H](O)[C@H](O)[C@H]6O)CC[C@@]56C[C@@]46CC[C@]23C)O1 [Astragaloside IV]
effect on Bax, p53, Bcl-2 and Bcl-XL [1]: down-regulation of Bax and p53 (pro-apoptotic molecules), and up-regulation of the anti-apoptotic Bcl-2 and Bcl-XL molecules
effect on procaspase-8, caspase-3 and procaspase-9 [1]: blocked the procaspase-8, resulting in the inhibition of the pro-apoptosis enzymes caspase-3 and procaspase-9 activities

Nc1cc(N2CCCCC2)nc(N)[n+]1[O-] [5% minoxidil, minoxidil]
Efficacy Factor Multiple vs 2% Minoxidil [2]: 1.0
Efficacy Factor Multiple vs 2% Minoxidil [3]: 1.9

procyanidin
adverse side effects (male pattern baldness): without any adverse side effects

O=C(O)CCCC[C@@H]1SC[C@@H]2NC(=O)N[C@@H]21 [Biotin]
HDPSC growth in the MTT assay, result in words ([4]; 72 h, stock dilutions 10^−1-10^−5): statistically significant reduction in the cell population
MTT signal (absorbance at 570 nm), mean relative to Control 1.00 ([4]; Table 5b, dilution 1/10^3, 5% oxygen, 72 h): 1.12
MTT signal (absorbance at 570 nm), mean relative to Control 1.00 ([4]; Table 5b, dilution 1/10^4, 5% oxygen, 72 h): 0.95
MTT signal (absorbance at 570 nm), mean relative to Control 1.00 ([4]; Table 5b, dilution 1/10^5, 5% oxygen, 72 h): 0.69
MTT signal (absorbance at 570 nm), mean relative to Control 1.00 ([4]; Table 5c, dilution 1/10^3, 5% oxygen, 72 h): 0.76
MTT signal (absorbance at 570 nm), mean relative to Control 1.00 ([4]; Table 5c, dilution 1/10^4, 5% oxygen, 72 h): 0.70
MTT signal (absorbance at 570 nm), mean relative to Control 1.00 ([4]; Table 5c, dilution 1/10^5, 5% oxygen, 72 h): 0.95
Change vs Control (stem cells, MTT) ([4]; dilution 1/10^3, 5% oxygen): 52.0%
Change vs Control (stem cells, MTT) ([4]; dilution 1/10^5, 5% oxygen): −21.0%
Change in Stem Cells (MTT signal, mean relative to Control 1.00) ([4]; Table 5d, dilution of stock 1/10^4, 5% oxygen, 72 h): 1.09
Change in Stem Cells (MTT signal, mean relative to Control 1.00) ([4]; Tables 5f/5g, dilution of stock 1/10^3, 18% oxygen, 72 h): 0.99
Change in Stem Cells (MTT signal, mean relative to Control 1.00) ([4]; Tables 5f/5g, dilution of stock 1/10^4, 18% oxygen, 72 h): 1.21
Change in Stem Cells (MTT signal, mean relative to Control 1.00) ([4]; Tables 5f/5g, dilution of stock 1/10^5, 18% oxygen, 72 h): 0.98
Change in Stem Cells (MTT signal, mean relative to Control 1.00) ([4]; Tables 5d/5e, dilution of stock 1/10^3, 5% oxygen, 72 h): 1.52
Change in Stem Cells (MTT signal, mean relative to Control 1.00) ([4]; Tables 5d/5e, dilution of stock 1/10^5, 5% oxygen, 72 h): 0.79
HDPSC population reduced by ([4]; stock dilution 10^−5): 21%
HDPSC Proliferation (MTT, means % relative to Control = 100%) ([4]; stock dilution 10^−5, 5% oxygen, 72 h): 79%
relative effect on Wnt/beta-Catenin Signaling (Control=100) ([5]; No Biotin, 18% oxygen, 72 h): 97
luciferase activity in TopFlash transfected HDPSCs, individual replicate measurements (single treatments) ([5]; Table 9b, replicates 1-28, 18% oxygen, 72 h): 21.57 arbitrary luminescence values and 17.5 arbitrary luminescence values and 14.29 arbitrary luminescence values and 19.58 arbitrary luminescence values (2×) and 23.45 arbitrary luminescence values and 26.25 arbitrary luminescence values and 19.99 arbitrary luminescence values and 20.75 arbitrary luminescence values (2×) and 12.46 arbitrary luminescence values and 7.884 arbitrary luminescence values and 11.65 arbitrary luminescence values and 12.51 arbitrary luminescence values (2×) and 16.28 arbitrary luminescence values and 20.14 arbitrary luminescence values and 20.65 arbitrary luminescence values and 10.28 arbitrary luminescence values and 7.63 arbitrary luminescence values and 10.94 arbitrary luminescence values and 15.57 arbitrary luminescence values and 18.62 arbitrary luminescence values and 20.5 arbitrary luminescence values and 14.24 arbitrary luminescence values and 15.72 arbitrary luminescence values and 22.03 arbitrary luminescence values and 23.3 arbitrary luminescence values
luciferase activity in TopFlash transfected HDPSCs, individual replicate measurements (combination experiment with Biotin) ([5]; Table 9d, replicates 1-21, 18% oxygen, 72 h): 79.5782 arbitrary luminescence values and 105.8972 arbitrary luminescence values and 78.0728 arbitrary luminescence values and 83.6682 arbitrary luminescence values and 87.4832 arbitrary luminescence values and 90.9168 arbitrary luminescence values and 94.2910 arbitrary luminescence values and 100.5561 arbitrary luminescence values and 22.6868 arbitrary luminescence values and 41.6603 arbitrary luminescence values and 37.0416 arbitrary luminescence values and 33.2163 arbitrary luminescence values and 44.2139 arbitrary luminescence values and 48.4257 arbitrary luminescence values and 95.4836 arbitrary luminescence values and 110.3368 arbitrary luminescence values and 109.6925 arbitrary luminescence values and 129.5662 arbitrary luminescence values and 112.3295 arbitrary luminescence values
luciferase activity in TopFlash transfected HDPSCs, mean (single treatments) ([5]; Tables 9a/9b, 18% oxygen, 72 h, 560 ± 10 nm, 27-28 replicates): 17.0 ± 0.9 arbitrary luminescence values and 17.02 arbitrary luminescence values
luciferase activity in TopFlash transfected HDPSCs, mean (combination experiment with Biotin) ([5]; Tables 9c/9d, 18% oxygen, 72 h, 18-20 replicates): 79.2 ± 7.3 arbitrary luminescence values and 79.2167 arbitrary luminescence values
relative effect on Wnt/beta-Catenin Signaling (Control=100) ([5]; With Biotin, 18% oxygen, 72 h): 99
% Change vs Control / Wnt/β-catenin Signal Upregulation of Combinations vs Control ([5]; combination with Biotin (or Biotin alone), dilution 10^−3, 18% oxygen): −1.0%
effect of Biotin on Wnt/beta-Catenin signaling upregulated by botanical extracts ([5]; tested in combination with botanical extracts): attenuating or inhibiting effect

Nc1cc(N2CCCCC2)nc(N)[n+]1[O-] [2% minoxidil, minoxidil]
Efficacy Factor Multiple vs 2% Minoxidil [2]: 1.0
Efficacy Factor Multiple vs 2% Minoxidil [3]: 1.0
